Laboratory results from ChEMBL document CHEMBL1152311, “A multipronged approach to the study of peruvian ethnomedicinal plants: a legacy of the ICBG-Peru Project” (J Nat Prod, 2009).

Tested on: Mycobacterium tuberculosis
Test: Antituberculosis activity against multidrug-resistant Mycobacterium tuberculosis
Type: functional, organism-based

C[C@H](C/C=C\C(C)(C)OO)[C@H]1CC[C@@]2(C)[C@@H]3CC[C@H]4C(C)(C)[C@@H](O)CC[C@@]45C[C@@]35CC[C@]12C
IC50: 27.3 µM
